# In patent US8487001B2, “Medium-chain length fatty acids, glycerides and analogues as neutrophil survival and activation factors” (ProMetic BioSciences Inc., priority 2001, dated 2013):
# Where “and” joins values, the source holds several entries; their conditions need not be identical. Identical values can stand only once. Entries after “also recorded” stand apart in the source; their conditions may differ.
# Columns and labels:
# [1] = test system: bone marrow cells; assay: In vivo chemoprotection: bone marrow cell count; conditions: for effect on bone marrow cell count compared to cyclophosphamide treated mice: protocol of example 16 (pre-treatment)
# Method: (§1) To examine the immunoprotective effect of MCT or other compounds, mice were pre-treated orally at day-3, -2 and -1 or treated intravenously at day 0 with the test compound. Mice were sacrificed at day +5 by cardiac puncture and cervical dislocation. Then, cell suspensions were prepared from thymus, spleen and bone marrow as follow.
# (§2) Tissues were crushed in PBS buffer and contaminating erythrocytes were lysed in ACK buffer (155 mM NH4Cl, 12 mM NaHCO3, 0.1 mM EDTA, pH 7.3) for 5 minutes. Cells were then collected by centrifugation and washed three times in PBS and resuspended in tissue culture medium. Cells were counted on a hemacytometer.
# (§3) Chemoprotection studies were performed as described in example 16 except that mice were (post)-treated with MCT, sodium caprylate, sodium caprate or capric acid per o.s. on day 1, 2, 3 and 4.
# [2] = test system: spleen cells; assay: In vivo chemoprotection: spleen cell count; conditions: for effect on spleen cell count compared to cyclophosphamide treated mice: protocol of example 16 (pre-treatment)
# Method: as §1, §2, §3
# [3] = test system: blood cell subsets; assay: Blood immunophenotyping (flow cytometry of cell surface markers); type: in vivo, C57BL/6 mice; conditions: for Blood Immunophenotyping: effect compared to cyclophosphamide alone (words): CY (200 mg/kg) immunosuppressed mice
# Method: (§4) Female, 6- to 8-week old, C57BL/6 mice were pre-treated on day -3, -2 and -1 per o.s. or intravenously at day 0 with different concentrations of MCT. Immunophenotyping was also performed on immunosuppressed animals. […] Mice were sacrificed on day 5 by cardiac puncture. Blood and spleens were collected and cell suspensions prepared and erythrocytes lysed in ACK buffer (155 mM NH4Cl, 12 mM NaHCO3, 0.1 mM EDTA, pH 7.3) for 5 minutes. The cells were washed three times in PBS, pH 7.4 and resuspended in tissue culture medium. The cells were then incubated for 45 minutes on ice with fluorescein isothiocyanate (FITC) or phycoerythrin (PE) conjugated cell surface marker according to the manufacturer's (Gibco/BRL, Cedarlane, Boehringer Mannheim) recommendation. The cells were then washed in PBS, fixed with 1% paraformaldehyde and analyzed with a Coulter XL flow cytometer. Analysis of the cell subsets was undertaken by determination of standard cell surface markers which were as follows: TCR (T-cell receptor), CD4 (T helper), CD8 (T cytotoxic/suppressor), CD11b (macrophage), NK (NK cells) and Ly5 (B-cells). Bone marrow cells were obtained as described in example 15. Cells were stained by a 45 minutes incubation of FITC or PE conjugated cell surface marker according to the manufacturer's recommendation. The cells were then washed in PBS, fixed with 1% paraformaldehyde and analyzed with a Coulter XL flow cytometer. Analysis of the cell subsets was undertaken by determination of standard cell surface markers which were as follows: CD34 (hematopoietic progenitor cells), CD41 (platelets, megakaryocytes), CD13 (myelomonocytic stem cells, myelocytes, promonocytes) and CD38 (lymphoid stem cells, pro-B, pre-B).
# [4] = test system: spleen cell subsets; assay: Spleen immunophenotyping (flow cytometry of cell surface markers); type: in vivo, C57BL/6 mice
# Method: as §4
# [5] = test system: bone marrow cell subsets; assay: Bone marrow immunophenotyping (CD34, CD13, CD41, CD38); type: in vivo, C57BL/6 mice; conditions: mouse, in vivo
# Method: as §4
# The effect of MCT, sodium caprylate, sodium caprate on bone marrow immunophenotyping was assessed by the protocol described in example 26.
# [6] = test system: DA-3 breast carcinoma; assay: Antitumor activity in DA-3 breast carcinoma model; type: in vivo, BALB/c mice; parameters: Tumor volume: unit not given here; conditions: for effect on tumor volume compared to the control: FIG. 12, Table 20; for effect on tumor volume compared to the control / T/C (%): therapeutic CY 200 mg/kg, TX 30 mg/kg; for Treated/Control (%) / Tumor volume: Table 19, sub-therapeutic CY 100 mg/kg, TX 20 mg/kg i.v. day 9 and 16, MCT per os, day 23; for T/C (%): Table 20
# Method: The syngeneic tumor DMBA3 (DA-3, breast carcinoma model) arose from a preneoplastic lesion treated with 7,12-dimethylbenzanthracene in female BALB/c mice. DA-3 cells were grown as monolayer cultures in plastic flasks in RPMI-1640 containing 0.1 mM nonessential amino acids, […], 2 mM L-glutamine and 100 μg/ml gentamycin sulfate. This was further supplemented with 50 μM 2-mercaptoethanol and 10% fetal bovine serum. The DA-3 tumors were serially passage in vivo by s.c. inoculation of 5×10^5 viable tumor cells to produce localized tumors in 6- to 8-week old BALB/c mice. The animals were then serially monitored by manual palpation for evidence of tumor. Serial tumor volume was obtained by bi-dimensional diameter measurements with calipers, using the formula […] (a×b^2) where “a” was the major tumor diameter and “b” the minor perpendicular diameter.
# BABL/c mice were injected with tumor cells on day 0. […] Body weights and tumor volumes were monitored from day 4 until day 23. At day 23, all animals were sacrificed. The % T/C (treatment over control) was calculated as the ratio of tumor volumes at termination date in the treatment group divided by the respective volumes in the control group multiplied by 100. By the NCl criteria the product is considered effective if % T/C is ≦40%.
# [7] = test system: human neutrophils (PMN); assay: Doxorubicin-induced neutrophil apoptosis, comparison to GM-CSF (% PMN viability); type: cell-based; conditions: Table 2
# Excerpt: Table 2 represents the effect of GM-CSF, MCT and tricaprylin on doxorubicin-induced human neutrophil apoptosis.
# [8] = Table 16, CY-treated mice, CY + test compound (CY line = CY alone), protocol of example 16
# [9] = Table 5, CY-treated mice, CY + test compound (CY line = CY alone), protocol of example 16
# [10] = Table 6, CY-treated mice, CY + test compound (CY line = CY alone), protocol of example 16
# [11] = Table 7, CY-treated mice, CY + test compound 6.25 μMole pre-treatment (CY line = CY alone)
# [12] = Table 8, CY-immunosuppressed mice, CY + test compound 6.25 μM (CY line = CY alone)
# [13] = Table 9, CY-immunosuppressed mice, CY + test compound 6.25 μMole (CY line = CY alone)
# [14] = Table 10, CY-treated mice, post-treatment per o.s. on day 1, 2, 3 and 4 with test substance 12.5 μM (CY line = CY alone)
# [15] = CY (200 mg/kg) immunosuppressed mice
# [16] = Table 14, CY (200 mg/kg) immunosuppressed mice, compound 6.25 μM
smiles,measurement,setting,value
"CCCCCCCCCC(=O)OCC(N)COC(=O)CCCCCCCCC [didecanoyl serinol, 1,3-O,O-Didecanoyl serinol]",Bone Marrow # Cells (×10^6),[1]; [8],30 ± 3.8 ×10^6
same,Spleen # Cells (×10^6),[2]; [8],36 ± 9.9 ×10^6
same,melting point,,101 °C
"O=P1(N(CCCl)CCCl)NCCCO1 (stereo not drawn) [CY, cyclophosphamide, reference compound]",effect of cytotoxic drug on bone marrow cell count compared to the control,"[1]; FIG. 6, cytotoxic drug i.v. at day 0",depressed the bone marrow cell count compared to the control
same,Bone Marrow # Cells (×10^6),[1]; [9],22 ± 5.7 ×10^6
same,Bone Marrow # Cells (×10^6),[1]; [10],22 ± 5.8 ×10^6
same,Bone Marrow # Cells (×10^6),[1]; [11],32 ± 6.3 ×10^6
same,Bone Marrow # Cells (×10^6),[1]; [12],27 ± 2.8 ×10^6
same,Bone Marrow # Cells (×10^6),[1]; [13],25 ± 4.9 ×10^6
same,Bone Marrow # Cells (×10^6),[1]; [14],19 ± 4.99 ×10^6
same,Bone Marrow # Cells (×10^6),[1]; [8],28 ± 3.4 ×10^6
same,Bone Marrow # Cells (×10^6),"[1]; Table 17, CY-treated mice, CY + test compound (CY line = CY alone), protocol of example 16",26.2 ± 2.6 ×10^6
same,Bone Marrow # Cells (×10^6),"[1]; Table 18, CY-treated mice, CY + test compound (CY line = CY alone), protocol of example 16",27.5 ± 8.0 ×10^6
same,effect of cytotoxic drug on spleen cell count compared to the control,"[2]; FIG. 7, cytotoxic drug i.v. at day 0",reduce significantly the spleen cell count compared to the control
same,Spleen # Cells (×10^6),[2]; [9],23 ± 4.0 ×10^6
same,Spleen # Cells (×10^6),[2]; [10],36 ± 13.6 ×10^6
same,Spleen # Cells (×10^6),[2]; [11],24 ± 6 ×10^6
same,Spleen # Cells (×10^6),[2]; [12],19 ± 6.5 ×10^6
same,Spleen # Cells (×10^6),[2]; [13],33 ± 13.2 ×10^6
same,Spleen # Cells (×10^6),[2]; [14],30 ± 9.5 ×10^6
same,Spleen # Cells (×10^6),[2]; [8],29 ± 9.2 ×10^6
same,Blood Immunophenotyping: CD11+ cell subset (relative percentage),"[3]; mouse, in vivo",26.41 ± 4.54
same,Blood Immunophenotyping: LY5−TCR− cell subset (relative percentage),"[3]; mouse, in vivo",36.82 ± 9.93 and 56.36 ± 7.26 and 40.91 ± 8.84
same,Spleen Immunophenotyping: CD11+ cell subset (relative percentage),"[4]; mouse, in vivo",16.31 ± 4.85
same,Spleen Immunophenotyping: NK+ cell subset (relative percentage),"[4]; mouse, in vivo",7.53 ± 2.52
same,% Cells CD13+ (bone marrow),[5],3.2 ± 0.5%
same,% Cells CD34+ (bone marrow),[5],10 ± 1.0%
same,% Cells CD38+ (bone marrow),[5],39.6 ± 13.6%
same,% Cells CD41+ (bone marrow),[5],4.2 ± 0.6%
same,Bone marrow immunophenotyping,[5],induces a significant increase in all studied subsets
same,effect on tumor volume compared to the control,[6],significant reduction of the tumor volume
same,Treated/Control (%),[6],46.8%
same,Tumor volume,[6],27.5 ± 15.9
same,T/C (%),[6],18.8%
CCCCCCCC(=O)OCC(COC(=O)CCCCCCC)OC(=O)CCCCCCC [tricaprylin],effect on doxorubicin-induced human neutrophil apoptosis,[7],rescues doxorubin-induced apoptosis and further enhances the viability of human neutrophils to a higher extent than that observed in the non-treated neutrophils
same,effect on bone marrow cell count compared to cyclophosphamide treated mice,[1]; CY-treated mice,efficacious in the proliferation or protection of bone marrow cell counts
same,Bone Marrow # Cells (×10^6),[1]; [10],34 ± 7.8 ×10^6
same,effect on spleen cell count compared to cyclophosphamide treated mice,[2]; CY-treated mice,No significant effect
same,Spleen # Cells (×10^6),[2]; [10],37 ± 12.6 ×10^6
CCCCCCCCCCCC(=O)OCC(COC(=O)CCCCCCCCCCC)OC(=O)CCCCCCCCCCC [trilaurin],effect on bone marrow cell count compared to cyclophosphamide treated mice,[1]; CY-treated mice,weak (not significant) activity
same,Bone Marrow # Cells (×10^6),[1]; [12],31 ± 6.8 ×10^6
same,effect on spleen cell count compared to cyclophosphamide treated mice,[2]; CY-treated mice,weak (not significant) activity
same,Spleen # Cells (×10^6),[2]; [12],28 ± 19.5 ×10^6
same,Blood Immunophenotyping: effect compared to cyclophosphamide alone (words),[3],no significant effect compared to cyclophosphamide alone
same,Blood Immunophenotyping: effect compared to cyclophosphamide alone (words),[3]; listed as Trilaurin,No significant effect
same,Spleen Immunophenotyping: effect compared to cyclophosphamide alone (words),[4]; [15],enhance the relative percentage of CD11+; also recorded: induces a significant increase in the LY5-TCR- and NK+ cell subsets
same,Spleen Immunophenotyping: CD11+ cell subset (relative percentage),[4]; [16],43.94 ± 4.78
same,Spleen Immunophenotyping: LY5−TCR− cell subset (relative percentage),[4]; [16],77.86 ± 2.94
same,Spleen Immunophenotyping: NK+ cell subset (relative percentage),[4]; [16],17.46 ± 5.80
"CC(=O)O[C@@]12CO[C@@H]1C[C@H](O)[C@@]1(C)C(=O)[C@H](O)C3=C(C)[C@@H](OC(=O)[C@H](O)[C@@H](NC(=O)OC(C)(C)C)c4ccccc4)C[C@@](O)([C@@H](OC(=O)c4ccccc4)[C@H]21)C3(C)C [TX, taxotere]",effect of cytotoxic drug on bone marrow cell count compared to the control,"[1]; mouse, in vivo, iv",has no significant effect on bone marrow cell count
same,effect of cytotoxic drug on spleen cell count compared to the control,"[2]; mouse, in vivo, iv",reduce significantly the spleen cell count compared to the control
same,effect on tumor volume compared to the control,[6],not significant compared to the control mice
same,Treated/Control (%),[6],64.5%
same,Tumor volume,[6],37.9 ± 41.5
same,T/C (%),[6],64.7%
CCCCCCCCCCCCCC(=O)OCC(COC(=O)CCCCCCCCCCCCC)OC(=O)CCCCCCCCCCCCC [trimyristin],effect on bone marrow cell count compared to cyclophosphamide treated mice,[1]; CY-treated mice,weak (not significant) activity
same,Bone Marrow # Cells (×10^6),[1]; [12],31 ± 9.9 ×10^6
same,effect on spleen cell count compared to cyclophosphamide treated mice,[2]; CY-treated mice,weak (not significant) activity
same,Spleen # Cells (×10^6),[2]; [12],15 ± 4.6 ×10^6
same,Blood Immunophenotyping: effect compared to cyclophosphamide alone (words),[3],no significant effect compared to cyclophosphamide alone
same,Blood Immunophenotyping: effect compared to cyclophosphamide alone (words),[3]; listed as Trimyristin,No significant effect
same,Spleen Immunophenotyping: effect compared to cyclophosphamide alone (words),[4]; [15],enhance the relative percentage of CD11+
same,Spleen Immunophenotyping: CD11+ cell subset (relative percentage),[4]; [16],42.94 ± 8.45
